Measured values: US5776932A, “1,3,5-tribsubstituted indazole derivatives, processes for preparing, and for pharmacological treatment therewith” (Arzneimittelwerk Dresden G.m.b.H., priority 1996, dated 1998)

Legend:
[1] = test system: SRS-A bronchoconstriction in guinea-pigs sensitized with ovalbumin; test: SRS-A bronchoconstriction in anaesthetized, ovalbumin-sensitized guinea-pigs after inhalation of antigen; assay type: in vivo; details: -2 hrs, 1% OA, 20 inspirations
Description: For this purpose, guinea-pigs are actively sensitized against ovalbumin (OA) with 20 μg OA+20 mg Al(OH)3 in 0.5 ml, administered intraperitoneally (i.p.) and a booster dose of the same is administered 14 days later. One week after the booster dose, the animals are i.p. anaesthetized with urethane and connected to an apparatus (Mumed Physiological Recorder 800) for the determination of pulmonary function parameters. The animals are pretreated with mepyramine to antagonize the histamine, with indomethacin to inhibit the formation of prostaglandins, and with propanolol to eliminate β-adrenergic mechanisms. If an allergic reaction is induced after this treatment, the associated bronchospam is extensively attributable to the effect of leukotrienes.
Before the experiment the test substances were administered orally two hours before the challenge. After an equilibration period an asthmatic challenge attack is induced by the nebulization of a 1% ovalbumin solution over 20 inspirations.
The drop in dynamic compliance is used as a suitable and well reproducible parameter for characterizing the action of leukotrienes. Under control conditions, after pretreatment and ovalbumin challenge, guinea-pigs react with a slow drop in compliance of c. 30-40% over 15 minutes.

[2] = biological target: T1, arachidonate-5-lipoxygenase (Rattus norvegicus, UniProt P12527); test: Inhibition of 5-lipoxygenase in prepared macrophages from Wistar rats; assay type: cell-based; details: quadruple determinations, mean IC50, read-out: IC50 (50% inhibition of 5-lipoxygenase)
T1 construct: using prepared macrophages from Wistar rats; endogenous in cells; host or cells: prepared macrophages from Wistar rats
T1 sequence (P12527 1-673): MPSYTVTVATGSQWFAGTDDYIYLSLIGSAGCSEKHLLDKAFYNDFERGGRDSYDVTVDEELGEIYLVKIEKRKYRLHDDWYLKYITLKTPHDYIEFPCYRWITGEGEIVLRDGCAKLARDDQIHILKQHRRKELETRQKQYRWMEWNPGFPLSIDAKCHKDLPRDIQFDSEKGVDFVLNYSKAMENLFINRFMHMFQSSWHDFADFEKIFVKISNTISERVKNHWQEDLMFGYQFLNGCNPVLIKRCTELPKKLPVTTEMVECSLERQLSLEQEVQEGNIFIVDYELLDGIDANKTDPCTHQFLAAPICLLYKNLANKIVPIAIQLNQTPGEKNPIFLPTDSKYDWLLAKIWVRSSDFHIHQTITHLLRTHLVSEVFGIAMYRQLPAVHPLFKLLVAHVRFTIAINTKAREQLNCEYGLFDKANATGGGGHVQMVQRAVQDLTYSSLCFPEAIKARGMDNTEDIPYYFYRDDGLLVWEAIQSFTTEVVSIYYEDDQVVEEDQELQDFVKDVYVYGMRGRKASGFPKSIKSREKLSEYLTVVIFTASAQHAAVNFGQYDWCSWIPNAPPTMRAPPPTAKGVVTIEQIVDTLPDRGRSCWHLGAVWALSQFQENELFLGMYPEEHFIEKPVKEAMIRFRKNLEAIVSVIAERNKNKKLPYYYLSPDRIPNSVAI
Excerpt: Murphy, R. C. and Matthews, W. R., Purification and Characterization of Leukotrienes from Mastocytoma Cells, Methods in Enzymology, 86, pp. 409-416.
Argentiere, D. D., Ritchie, D. M. et al., Tepoxalin: A Dual Cyclooxygenase/5-Lipoxygenase Inhibitor of Arachidonic Acid Metabolism with Potent Anti-inflammatory Activity and a Favorable Gastrointestinal Profile, The Journal of Pharmacology and Experimental Therapeutics, Vol. 271, No. 3, 1399-1408, 1994.
Carter, G. W., Young, P. R. et al., 5-Lipoxygenase Inhibitory activity of Zileuton, The Journal of Pharmacology and Experimental Therapeutics, Vol. 256, No. 3, 1991.
The experiments were all conducted as quadruple determinations, by combining four partial experiments in each case were combined to determine the mean IC50 value.

[3] = test system: tracheal segments from actively sensitized guinea-pigs; test: Inhibition of the antigen (ovalbumin)-induced contraction of isolated tracheal segments from actively sensitized guinea-pigs; design: species or system guinea-pig; details: Cavia porcellus; under mepyramine and indomethacin protection; carbachol = 100%
Description: For this purpose, isolated tracheal segments from guinea-pigs actively sensitized against ovalbumin by the s.c. administration of 10 μg of ovalbumin with 1 mg of aluminum hydroxide adjuvant, three weeks before removal of the organ, and a booster dose of the same amount of ovalbumin and aluminum hydroxide s.c. one week before removal of the organ. The segments were placed in organ baths filled with a nutrient solution aerated with carbogen which is a mixture of 95% oxygen and 5% carbon dioxide, and kept at 37° C., and were connected to isometric force transducers. After preincubation with mepyramine to eliminate histamine, and indomethacin for the inhibition of cyclooxygenase, 5×10^-7 mol/l carbachol (carbamylcholine chloride) was added and a contraction was induced. 10 μg/ml ovalbumin as an allergen was then added to the bath liquid and the maximum contraction of the tracheal segments which was thereby induced was correlated with the effect of the carbachol as control (=100%). The test substances were added to the organ bath 30 minutes before the allergen-induced contraction. Table 2 below indicates the IC50 values, i.e. the concentrations which cause a 50% inhibition of the contraction of isolated tracheal segments from the guinea-pig. The IC50 values were determined by testing 3-4 concentrations on 4-8 organs in each case.

late phase eosinophilia = test: Inhibition of late phase eosinophilia 24 hours after the inhalational ovalbumin challenge on actively sensitized guinea-pigs; assay type: in vivo; details: -2 h; for EOS, B (eosinophils in the group treated with the substance, with challenge): x ± s
Excerpt: Eosinophilic granulocytes play an important part in the transition of allergic diseases, e.g. bronchial asthma, to the chronic stage. Thus the bronchoalveolar lavage fluid (BAL) contains an increased number of eosinophils a few hours after an allergen-induced asthmatic attack. Eosinophils are expected to play an important part in cell damage since they contain histotoxic proteins, like major basic protein (MBP) and eosinophil cation protein (ECP), in their granula. It is also assumed that substances which prevent the infiltration of eosinophils have a therapeutic action against allergic diseases like bronchial asthma.
The inhibition of eosinophil infiltration by the substances was tested in vivo on guinea-pigs actively sensitized against ovalbumin by the substantenous administration of 10 μg of OA, with 1 μg of aluminum hydroxide adjuvant, three weeks before the beginning of the experiment, and a booster dose containing the same amount of OA and aluminum hydroxide was administrated substantaneously one week before the beginning of the experiment. Three weeks after the first sensitization, the animals were placed in a plastic box and exposed to an aerosol of 0.5% OA dissolved in a physiological saline solution. The nebulization time was 20-30 seconds. After 24 hours the animals were intraperitoneally anaesthetized with 1.5 g/kg body weight ethylurethane and a bronchioalveolar lavage was performed with 2×5 ml of physiological saline solution. The lavage fluid was collected and centrifuged at 400 G for 10 minutes and the cell pellet was then resuspended in 1 ml of physiological saline solution. The eosinophils were microscopically counted in a Neubauer chamber after staining using the No. 5877 Becton-Dickinson test kit for eosinophilia. The number of eosinophils was indicated in millions per animal. Each test was also carried out with two control groups with and without antigen challenge.
The percentage inhibition of the eosinophilia in the experimental groups treated with the substance is calculated by the following formula:
(A-C)-(B-C)/(A-C)×100=% inhibition
The test substances were administered orally or intraperitoneally as a triturate in 0.5% 5-hydroxyethylcellulose two hours before the antigen challenge.

In the case of COc1ccc2c(c1)c(O)nn2Cc1ccc(OCc2ccc3ccccc3n2)cc1 [Example 50], the “% drop in dyn. compliance” value ([1]; 5.0 mg/kg oral) is reported as 22 ± 10%, the “% inhibition” value ([1]; 5.0 mg/kg oral) is reported as 45% and the “% drop in dyn. compliance” value ([1]; 10.0 mg/kg oral) is reported as 12 ± 11%. For the same compound, the “% inhibition” value ([1]; 10.0 mg/kg oral) was 70%, the IC50 [2] was 44 nM and the IC50 [3] was 2900 nM. The “% inhibition (eosinophilia)” value (late phase eosinophilia; 10 mg/kg i.p.) was 46.0%, the “EOS, B (eosinophils in the group treated with the substance, with challenge)” value (late phase eosinophilia; 10 mg/kg i.p.) was 3.8 ± 2.8 mill./animal and the “% inhibition (eosinophilia)” value (late phase eosinophilia; 30 mg/kg p.o.) was 34.0%. The “EOS, B (eosinophils in the group treated with the substance, with challenge)” value (late phase eosinophilia; 30 mg/kg p.o.) was 6.0 ± 3.4 mill./animal.
